Reference: patent US4558064A, “2-Azasfiro[4.(3+N)]-3-carboxylic acid derivatives, a process for their preparation, agents containing these derivatives and their use” (Hoechst Aktiengesellschaft, priority 1982, dated 1985)

Tested on: pressor response induced by angiotensin I
Test: suppression of the pressor response in the rat induced by 310 ng of angiotensin I
Format: in vivo
Conditions: 30 minutes after administration, 310 ng angiotensin I
Experimental: In animal experiments, the following effects, for example, were obtained: the suppression of the pressor response in the rat induced by 310 ng of angiotensin I was measured.
(a) i.v. administration (30 minutes after administration)
(b) i.d. administration (30 minutes after administration)

[1] = i.v. administration, dose 100 μg/kg

SMILES | % inhibition of the pressor response induced by angiotensin I (i.d. administration, dose 0.1 mg (so in the source)) | % inhibition of the pressor response induced by angiotensin I [1] [%] | % inhibition of the pressor response induced by angiotensin I (i.d. administration, dose 1 mg/kg)
CCOC(=O)C(CCc1ccccc1)NC(C)C(=O)N1CC2(CCCCC2)CC1C(=O)O (stereo not drawn) | 60-70% | 95 | 
CC(NC(CCc1ccccc1)C(=O)O)C(=O)N1CC2(CCCCCC2)CC1C(=O)O (stereo not drawn) |  | 95 | 
CCOC(=O)C(CCc1ccccc1)NC(C)C(=O)N1CC2(CCCC2)CC1C(=O)O (stereo not drawn) |  | 95 | 85-95%
CCOC(=O)C(CC(=O)c1ccccc1)NC(C)C(=O)N1CC2(CCCCC2)CC1C(=O)O (stereo not drawn) [N-(1-Carboethoxy-3-oxo-3-phenylpropyl)alanyl-2-azaspiro[4.5]decane-3-carboxylic acid] |  | 95 | 
